Experimental data taken from patent EP0840781B1, “METHODS AND DEVICES FOR THE REMOVAL OF PSORALENS FROM BLOOD PRODUCTS” (Cerus Corporation, priority 1995, dated 1996).

Tests used:
[1] = system: Duck Hepatitis B Virus (DHBV); test: Inactivation of Duck Hepatitis B Virus in platelet concentrate, read out by PCR amplification; assay type: biochemical; details: 5 J/cm^2 UVA
Procedure: This example describes the protocol for inactivation of Duck Hepatitis B Virus (DHBV), a model for Hepatitis B Virus, using compounds described herein.
DHBV in duck yolk was added to platelet concentrate (PC) to a final concentration of 2 x 10^7 particles per mL and mixed by gentle rocking for ≥15 min. Psoralens S-70, S-59 and AMT were added to 3 mL aliquots of PC in a Teflon™ mini-bag at concentrations of […]. Samples, including controls without added psoralen, were irradiated with 5 J/cm^2 UVA, with mixing at 1 J/cm^2 increments. After irradiation, leukocytes and platelets were separated from virus by centrifugation. The supernatant containing DHBV was digested overnight with 50 µg/mL proteinase K in a buffer containing 0.5% sodium dodecyl sulphate, 20 mM Tris buffer, pH 8.0, and 5 mM EDTA at 55°C. Samples were extracted with phenolchloroform and chloroform, followed by ethanol precipitation. Purified DNA was then used in PCR amplification reactions with a starting input of 10^6 DHBV genomes from each sample. PCR amplicons were generated using primers pairs DCD03/DCD05 (127 bp), DCD03/DCD06 (327 bp) and DCD03/DCD07 (1072 bp). PCR was performed in a standard PCR buffer containing 0.2 mM each deoxyribonucleoside 5'-triphosphates (dATP, dGTP, dCTP, and dTTP), […] each primer, and 0.5 units Taq polymerase per […]. 30 cycles of amplification were performed with the following thermal profile: 95°C 30 sec, 60° C 30 sec, 72° C 1 min. The amplification was followed by a 7 min incubation at 72° C to yield full length products. [[…]-^32P] dCTP was added at an amount of […] per […] in order to detect and quantify the resulting products. Products were separated by electrophoresis on denaturing polyacrylamide slab gels and counted. The absence of signal in a given reaction was taken to indicate effective inactivation of DHBV.

R17 = test: r-17 bacteriophage assay: R17 treated with compound and UVA, remaining titer by plaque count on Hfr 3000 bacteria; assay type: cell-based; details: for R17 inactivation efficiency compared with AMT: varying concentration (Tables 7 and 8, FIGS. 6-10)
Procedure: In the r-17 assay, the bacteriophage was placed in a solution with each compound tested and was then irradiated. The ability of the phage to subsequently infect bacteria and inhibit their growth was measured. The bacteriophage was selected for its relatively accessible nucleic acid such that the culture growth inhibition would accurately reflect nucleic acid damage by the test compounds. The bacteriophage assay for nucleic acid binding to test compounds offers a safe and inexpensive procedure to identify compounds likely to display efficient pathogen inactivation. Previous experiments support that the r-17 assay accurately measures HIV-1 sensitivity to similar compounds. […] Modified Eagles Medium (DMEM) to a final phage concentration of 10^9/mL. An aliquot (0.5 mL) was transferred to a 1.5 mL snap-top polyethylene tube. […] Louis, MO). The tubes were placed in a light device as described in EXAMPLE 1 and irradiated for between 1 and 10 minutes. […] To make the dilutions. a 0.100 mL aliquot of the irradiated solution of phage and test compound was added to the first dilution tube of 0.4 mL of media then 0.020 mL of this solution was added to the second tube of 0.5 mL medium (1:25). […] After the top agar hardened, the plates were incubated at 37 °C overnight. The plaque forming units were then counted the following morning and the titer of the phage remaining after phototreatment was calculated based on the dilution factors. The following controls were run: the "phage only" in which phage was not treated with test compound and not irradiated (listed as "starting titer" in the tables below); the "UV only" in which the phage was irradiated in the absence of test compound; and the "dark" control in which the phage/test compound solution was not irradiated before it was diluted and plated. Compounds described herein were also tested at a constant concentration for varying doses of UV light. […] The compound tested was added at the desired concentration and the samples were vortexed. […] Between each 1.0 J/cm^2 intervals, 100µL was removed from each sample and placed in the first corresponding dilution tube, then five sequential dilutions were performed for each compound tested, at all 3 irradiation doses, as described above in this example. […] The contents of each tube was poured into its own LB plate and the plates were incubated overnight at 37 °C. Plaques were counted by visual inspection the following morning.

[2] = system: Chinese hamster ovary (CHO) cells; test: In vitro genotoxicity screen in CHO cells (toxic dose); assay type: cell-based; details: approximately 3 hours exposure in the dark, dilutions 1-1000 µg/ml
Excerpt: The positive control was methylmethane sulfonate.
Coverslips were mounted with Permount.

[3] = system: H9 cells chronically infected with HIVIIIB; test: Inactivation of cell-associated HIV in platelet concentrate, HIV microplaque assay; assay type: cell-based; details: 150 µM in platelet concentrate; for logs of HIV inactivated (cell-associated): 3 Joules/cm^2, starting log titer 6.1 (Compound 2) or 6.6 (Compound 18); for log inactivation of HIV, dark control: no UVA
Procedure: H9 cells chronically infected with HIVIIIB were used. (H9/HTLV-III-B NIH 1983 Cat.#400). Cultures of these cells were maintained in high glucose Dulbecco Modified Eagle Medium supplemented with 2 mM L-glutamine, 200 u/mL penicillin, 200 µg/ml streptomycin, and 9% fetal bovine serum (Intergen Company, Purchase, N.Y.) For maintenance, the culture was split once a week, to a density of 3 x 10^5 to 4 x 10^5 cells/ml and about four days after splitting, 3.3% sodium bicarbonate was added as needed. For the inactivation procedure, the cells were used three days after they were split. They were pelleted from their culture medium at 400 g x 10 minutes, the supernatant was discarded, and the cells were resuspended in one to five day old human platelet concentrate (PC) (pH 7.5-6.5), to a concentration of 2 x 10^6 cells/ml. Aliquots of the PC-infected cell suspension were made for psoralen free dark controls, for psoralen free UVA only controls, for psoralen dark controls, and for the psoralen plus UVA experimental sample. Concentrated filter-sterilized stock solutions of each psoralen in water were diluted into the appropriate aliquots to yield a final concentration of 150 µM. […] After an equilibration period of thirty minutes at room temperature, 0.5 ml of each of the dark controls was placed in a cryovial and stored in the dark at -80° C. For UVA illumination, 8 ml of the psoralen free aliquot and 8 ml of each psoralen containing aliquot were introduced into a modified F1 20 Teflon™ bag (modified to be 92 cm^2 total surface area. The West Co., Phoenixvill, PA) via a plastic disposable 10 ml syringe attached to one of the polypropylne ports on the bag. This gave an average path length of 0.17 cm. The bags were then illuminated for a total exposure of 3 Joules/cm^2 in the device described in Example 1, above, attached to a circulating refrigerating water bath set at 4° C. which maintains the temperature in the bag at approximately 22-25° C. During exposure, the device was shaken on a platelet shaker (Helmer Labs, Noblesville, IN). After exposure, the contents of the bags were withdrawn by a fresh syringe through the remaining unused port on the bag, and placed in cryovials for storage in the dark at […] until analysis.
Clot removal from each sample was performed before plating.

[4] = 8 µM, 1 Minute Irradiation, Starting Titer Approx. 7.2 Logs (Table 7)
[5] = 16 µM, 1 Minute Irradiation, Starting Titer Approx. 7.1 Logs (Table 9)
[6] = 16 µM, 1 Minute Irradiation, Starting Titer Approx. 7.2 Logs (Table 7)
[7] = 16 µM, 1 Minute irradiation = 1.2 J/cm^2, Starting Titer Approx. 7.1 Logs (Table 8)
[8] = 32 µM, 1 Minute Irradiation, Starting Titer Approx. 7.2 Logs (Table 7)
[9] = 32 µM, 1 Minute irradiation = 1.2 J/cm^2, Starting Titer Approx. 7.1 Logs (Table 8)

SMILES	PCR amplification of the 1072 bp amplicon of DHBV [1]	PCR amplification of the 1072 bp amplicon of DHBV ([1]; 70 and 100 mM in PC)	R17 Log Kill (R17; [4])	R17 Log Kill (R17; [5])	R17 Log Kill (R17; [6])	R17 Log Kill (R17; [7])	R17 Log Kill (R17; 32 µM, 1 Minute Irradiation, Starting Titer Approx. 7.1 Logs (Table 9))	R17 Log Kill (R17; [8])	R17 log kill (32 µM) (R17; 32 µM, 1 Minute Irradiation, Starting Titer Approx. 7.5 Logs (Table 6))	R17 Log Kill (R17; [9])	genotoxic (toxic) dose [2] [µg/mL]	logs of HIV inactivated (cell-associated) [3] [logs]	log inactivation of HIV, dark control [3] [logs]	PCR of the 1072 bp amplicon of DHBV ([1]; all concentrations (35, 70, and 100 mM) in PC)	inhibition of PCR of the smaller amplicons (127 bp, 327 bp) of DHBV ([1]; same concentrations as AMT)	R17 inactivation efficiency compared with AMT (R17)	R17 Log Kill (R17; 8 µM, 1 Minute Irradiation, Starting Titer Approx. 7.1 Logs (Table 9))	R17 Log Kill (R17; 64 µM, 1 Minute irradiation = 1.2 J/cm^2, Starting Titer Approx. 7.1 Logs (Table 8))	efficiency at inactivating R17 compared with AMT (R17; constant concentration, varying doses of UV light 1.0-3.0 J/cm^2 (FIGS. 11-17))
Cc1oc2c(C)c3oc(=O)cc(C)c3cc2c1CN [AMT, 4'-Aminomethyl-4,5',8-trimethylpsoralen, reference compound]	a signal could be detected	inhibited PCR amplification	2.7	>6	4.6	4.5	>6	>6.2	>6.7	4.8	30	–	–	–	–	–	–	–	–
Cc1oc2c(C)c3oc(=O)cc(C)c3cc2c1COCCN [Compound 2, 4'-(4-amino-2-oxa)butyl-4,5',8-trimethylpsoralen]	–	–	3.8	–	>6.2	–	–	>6.2	–	–	–	> 6.7	0	complete inhibition of PCR	better than did AMT	significantly higher inactivation efficiency than does AMT	–	–	–
Cc1cc(=O)oc2c(C)c3oc(COCCN)c(C)c3cc12 [Compound 18, 5'-(4-amino-2-oxa)butyl-4,4',8-trimethylpsoralen]	–	–	–	–	–	–	–	–	–	–	–	> 7.2	0	–	–	–	–	–	–
Cc1oc2c(C)c3oc(=O)cc(C)c3cc2c1CNCCCCN [Compound 6, 4'-(6-amino-2-aza)hexyl4,5',8-trimethylpsoralen]	–	–	–	>6	–	6.1	–	–	–	>6.1	–	–	–	–	–	significantly higher inactivation efficiency than does AMT	>6	>6.1	more efficient at inactivating R17 than was AMT
